We go through one substance from US20240285670A1, “THERAPEUTIC TREATMENT OF TUMORS BY BLOCKING THE HEME SYNTHESIS-EXPORT AXIS” (Università degli Studi di Torino, priority 2021, published 2024).

One data set relates to Caco2 cells. Briefly: Activity of mitochondrial ETC complexes I-IV in Caco2 cells. Type of data set: cell-based, human. Particulars: FLVCR1a-silenced vs scramble shRNA Caco2 cells. An excerpt:
(A, C, E) Activities of the mitochondrial electron transport chain complexes I-IV. FLVCR1a-silenced Caco2 (A), SKCO1 (C) or C80 cells (E) are compared to cells expressing a scramble shRNA. Results were expressed as nmol NAD^+/min/mg mitochondrial protein for complex I, nmol reduced cytochrome c/min/mg mitochondrial protein for complexes II-III, nmol oxidized cytochrome c/min/mg mitochondrial protein for complex IV. Data represent mean±SEM, n=3. For statistical analyses, an unpaired Student's t-test was used; *=p<0.05, **=p<0.01. (B, D, F) Mitochondrial ATP levels measured by a bioluminescent assay kit. FLVCR1a-silenced Caco2 (B), SKCO1 (D) or C80 cells (F) are compared to cells expressing a scramble shRNA. Results are expressed as nmol/mg mitochondrial proteins. Data represent mean±SEM, n=3. […] Results were expressed as nmol NAD^+/min/mg mitochondrial protein for complex I, nmol reduced cytochrome c/min/mg mitochondrial protein for complexes II-III, nmol oxidized cytochrome c/min/mg mitochondrial protein for complex IV. […] (H) Mitochondrial ATP levels measured by a bioluminescent assay kit in Caco2 cells overexpressing FLVCR1a (indicated as FLVCR1a+) compared to cells stably transduced with an empty vector. Results are expressed as nmol/mg mitochondrial proteins. […]
The activity of mitochondria respiration complexes was measured according to (Wibom et al., 2002).

The subject of the next data set is SKCO1 cells. As to the kind of experiment: SKCO1 xenograft tumor model in NSG mice. The format is in vivo. An excerpt: (A) Proliferation of Caco2 cells assessed by crystal violet staining at the indicated days; bar=1000 μm. […] Staining quantification is reported in the bar graph as percentage of crystal violet stained area. Data represent mean±SEM, n=4. For statistical analyses, a two-way analysis of variance was used, followed by the Bonferroni correction for multiple group comparisons; *=p<0.05, ***=p<0.001. (B) Caco2 cells viability the day of plating (day 0) and three days after plaiting (day 3). The measure is considered a readout of cell proliferation. […] Data represent mean±SEM, n=3 wells. For statistical analyses, a two-way analysis of variance was used, followed by the Bonferroni correction for multiple group comparisons; *=p<0.05, **=p<0.01. (C, D, E) Representative flow cytometric analyses of apoptosis in synchronized Caco2 (C), SKCO1 (D) and C80 (E) cells. […] Data represent mean±SEM, n=4 wells pooled from two independent experiments. […]
For the SKCO1 xenograft model, 8-week-old NOD SCID gamma (NSG) male mice (The Jackson Laboratory, Bar Harbor, ME USA; NOD.Cg-Prkdc^scid Il2rg^tm1Wjl/SzJ, catalog n° 005557, RRID: IMSR_JAX:005557) were housed in a temperature-controlled, pathogen-free environment and used for experimentation. […] Tumor length (L) and width (W) were measured and tumor volume (mm^3) was calculated using the following formula: (L×W^2)/2. […]

For the substance “FLVCR1a shRNA: shRNA specifically down-regulating FLVCR1a without targeting FLVCR1b; pLKO.1 lentiviral clone TRCN0000059599, antisense SEQ ID No.: 2 (antisense TTGCTAATGATGCTGTACTGG; sense CCAGTACAGCATCATTAGCAA)”, the “activity of mitochondrial respiratory chain complexes” value in the data set on Caco2 cells is listed as “increased activity of all the complexes involved in the mitochondrial respiratory chain”. In addition, in the data set with SKCO1 cells (subcutaneous injection of FLVCR1a-silenced vs scramble SKCO1 cells in NSG mice, 11 weeks), the “tumor size (tumor volume)” value is given as “smaller tumors”. Besides, the “tumor histology (hematoxylin and eosin)” value in the data set on SKCO1 cells (tumors from FLVCR1a-silenced vs control SKCO1 cells in NSG mice) is “higher amount of stroma (mostly fibrous tissue) and, in general, lower cellularity”.
